Paper PMC7155171, “Probing the Open Global Health Chemical Diversity Library for Multistage-Active Starting Points for Next-Generation Antimalarials” (ACS Infectious Diseases, 2020)
Where two headings read alike, the source gives them in different places.

Key:
[1] = test system: P. berghei liver stage (PbLuc); test: P. berghei luciferase liver stage (PbLuc) assay in HepG2-A16-CD81 hepatocytes; format: cell-based, Plasmodium berghei; conditions: Plasmodium berghei; for Emax: 12pt dose response, maximum inhibition
[2] = test system: HepG2-A16-CD81 hepatocytes; test: HepG2 cytotoxicity screening (CellTiter-Glo); conditions: for HepG2 cytotoxicity 12pt dose response: Maximum inhibition (%): 12pt dose response
[3] = HepG2 cytotoxicity screening (CellTiter-Glo); conditions: human, uninfected HepG2-A16-CD81 (EGFP) hepatocytes
[4] = target: recombinant firefly luciferase (Photinus pyralis, UniProt P08659); test: biochemical; conditions: dose response
[5] = HepG2-A16-CD81, 12pt dose response, read-out: PbLuc 12pt dose response: IC50

Sequence of recombinant firefly luciferase (P08659 whole entry): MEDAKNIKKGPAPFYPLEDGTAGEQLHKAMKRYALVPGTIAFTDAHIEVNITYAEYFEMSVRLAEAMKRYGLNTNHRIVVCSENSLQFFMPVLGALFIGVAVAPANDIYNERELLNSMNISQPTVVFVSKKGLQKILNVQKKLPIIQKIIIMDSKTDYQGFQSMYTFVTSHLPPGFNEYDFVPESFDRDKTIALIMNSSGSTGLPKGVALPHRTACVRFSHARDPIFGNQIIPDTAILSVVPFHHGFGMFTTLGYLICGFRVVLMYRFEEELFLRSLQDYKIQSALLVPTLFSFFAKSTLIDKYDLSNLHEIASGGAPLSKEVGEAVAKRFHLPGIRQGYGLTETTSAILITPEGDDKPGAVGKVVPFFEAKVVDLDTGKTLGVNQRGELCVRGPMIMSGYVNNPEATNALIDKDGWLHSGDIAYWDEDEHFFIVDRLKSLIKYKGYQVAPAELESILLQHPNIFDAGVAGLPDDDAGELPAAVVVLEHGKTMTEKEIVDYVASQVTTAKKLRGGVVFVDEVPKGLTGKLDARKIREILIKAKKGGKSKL

Structure (SMILES): CCc1nc(CN2CCCN(c3ncnc4ccsc34)CC2)no1 [DDD01071387]
- IC50 ([1]; HepG2-A16-CD81, 48 h, 48 h liver stage, HepG2-A16-CD81, read-out: Pbluc (EEF) IC50): 9.87 µM
- IC50 ([2]; HepG2-A16-CD81, read-out: HepG2 tox IC50): > 50 µM

Structure (SMILES): NC(=O)C1CN(C(=O)Nc2cc(Cl)cc(Cl)c2)CCO1 (stereo not shown) [UCSD-0586016]
- IC50 [1, 5]: 1.39 µM
- Emax ([1]; HepG2-A16-CD81, 48 h): 102%
- IC50 [3]: 16.9 µM
- inhibition at 2 µM [3]: 11.4%
- HepG2 cytotoxicity 12pt dose response: Maximum inhibition (%) [2]: 92.5%

Structure (SMILES): CCc1nc(CN2CCCN(c3ncnc4ccsc34)CC2)no1 [UCSD-0620395]
- IC50 [1, 5]: 9.87 µM
- IC50 [3]: > 50 µM
- inhibition at 2 µM [3]: 12.5%
- HepG2 cytotoxicity 12pt dose response: Maximum inhibition (%) [2]: 49.7%

Structure (SMILES): Cc1ccc(CN2CCCC3(CCN(Cc4ccoc4)CC3)C2)cc1 [UCSD-0791105]
- IC50 [1, 5]: 7.88 µM
- Emax ([1]; HepG2-A16-CD81, 48 h): 99.9%
- IC50 [3]: 43.8 µM
- inhibition at 2 µM [3]: -2.23%
- HepG2 cytotoxicity 12pt dose response: Maximum inhibition (%) [2]: 55.5%

Structure (SMILES): CCn1nc(C)c2c1cnn2CCNS(=O)(=O)c1cccs1 [UCSD-0797219]
- inhibition at 2 µM [3]: -1.63%

Structure (SMILES): CCCNc1cc(-c2c[nH]nc2C2CCN(C(=O)C3CCC3)C2)ccn1 (stereo not shown) [UCSD-0798526]
- inhibition at 2 µM [3]: 83.5%

Structure (SMILES): Cc1nc(NCc2nonc2C)cc(C(C)Cn2nc(C)c(C)c2C)n1 (stereo not shown) [UCSD-0799497]
- inhibition at 10 µM ([1]; HepG2-A16-CD81, primary screen, 10 uM): 60.2%
- inhibition at 2 µM [3]: 87.2%

Structure (SMILES): CCc1nnc2n1CCN(c1nc(C)cc(N(C)C)n1)C2 [UCSD-0803797]
- inhibition at 2 µM [3]: 5.32%

Structure (SMILES): CN(CCc1ccncc1)CCc1nccs1 [UCSD-0805829]
- IC50 [1, 5]: 0.495 µM
- Emax ([1]; HepG2-A16-CD81, 48 h): 87.7%
- IC50 [3]: > 50 µM
- inhibition at 2 µM [3]: 2.05%
- HepG2 cytotoxicity 12pt dose response: Maximum inhibition (%) [2]: -1.84%

Structure (SMILES): CNC(=O)c1cccnc1NCc1ccc(Cn2ccnc2)cc1 [UCSD-0807977]
- inhibition at 2 µM [3]: 73.6%

Structure (SMILES): COc1cccc(CN2CCCC2c2ccc[nH]2)c1 (stereo not shown) [UCSD-0808841]
- inhibition at 2 µM [3]: -1.63%

Structure (SMILES): O=C(c1cnc(OCC(F)(F)F)c(Cl)c1)N1CCc2ccc(O)cc2C1 [UCSD-0809130]
- inhibition at 2 µM [3]: -5.64%

Structure (SMILES): COCCCC(=O)Nc1cc(Cl)c(Cl)cn1 [UCSD-0809266]
- inhibition at 2 µM [3]: 59.5%

Structure (SMILES): Cc1cc(C)c(CCNC(=O)CN2CCCN(C(N)=O)CC2)c(C)c1 [UCSD-0809576]
- inhibition at 2 µM [3]: -4.31%

Structure (SMILES): CCn1ccnc1CNCC(c1ccc(C)s1)N1CCOCC1 (stereo not shown) [UCSD-0810145]
- IC50 [1, 5]: 38.3 µM
- Emax ([1]; HepG2-A16-CD81, 48 h): 88.9%
- IC50 [3]: 46.2 µM
- inhibition at 2 µM [3]: 16.3%
- HepG2 cytotoxicity 12pt dose response: Maximum inhibition (%) [2]: 56.3%

Structure (SMILES): CC(C)CC(=O)NCc1cccc(OCCN(C)C2CCOCC2)c1 [UCSD-0810838]
- IC50 [1, 5]: > 50 µM
- Emax ([1]; HepG2-A16-CD81, 48 h): 39.1%
- IC50 [3]: > 50 µM
- inhibition at 2 µM [3]: 38.8%
- HepG2 cytotoxicity 12pt dose response: Maximum inhibition (%) [2]: 7.9%

Structure (SMILES): CC(C)(C)n1ncc2c1CCCC2NCc1ccc2c(c1)CCO2 (stereo not shown) [UCSD-0811334]
- inhibition at 2 µM [3]: 2.05%

Structure (SMILES): O=C(NC1CC1)c1cc(NC(=O)N2CCOCC2)ccc1Cl [UCSD-0811531]
- inhibition at 2 µM [3]: 1.26%

Structure (SMILES): Cc1n[nH]cc1CNC1CCN(c2cccc(C(F)(F)F)c2)CC1 [UCSD-0814169]
- IC50 [1, 5]: 9.3 µM
- Emax ([1]; HepG2-A16-CD81, 48 h): 88.9%
- IC50 [3]: > 50 µM
- inhibition at 2 µM [3]: -9.01%
- HepG2 cytotoxicity 12pt dose response: Maximum inhibition (%) [2]: 7.17%

Structure (SMILES): CCCNC(=O)CN1CCOC(CC)C1 (stereo not shown) [UCSD-0814421]
- inhibition at 2 µM [3]: -1.44%

Structure (SMILES): Clc1cnccc1NCc1cccc(COC2CCOCC2)c1 [UCSD-0814625]
- inhibition at 2 µM [3]: 43.7%

Structure (SMILES): CC(C)n1cnnc1C1CCCN(S(=O)(=O)CC2CCCC2)C1 (stereo not shown) [UCSD-0815907]
- inhibition at 2 µM [3]: 27.3%

Structure (SMILES): CS(=O)(=O)CCC(=O)NC1(c2cccc(C(F)(F)F)c2)CCC1 [UCSD-0816629]
- inhibition at 2 µM [3]: -9.29%

Structure (SMILES): CCOc1ccccc1CNC(=O)NCC(c1cnn(C)c1)N(C)C (stereo not shown) [UCSD-0816742]
- IC50 [1, 5]: > 50 µM
- Emax ([1]; HepG2-A16-CD81, 48 h): 36.1%
- IC50 [3]: > 50 µM
- inhibition at 2 µM [3]: 13.9%
- HepG2 cytotoxicity 12pt dose response: Maximum inhibition (%) [2]: -5.65%

Structure (SMILES): Cc1cccc(NCc2ncc(C(C)(C)C)o2)c1 [UCSD-0816980]
- IC50 [1, 5]: 16.6 µM
- Emax ([1]; HepG2-A16-CD81, 48 h): 73.4%
- IC50 [3]: > 50 µM
- inhibition at 2 µM [3]: 14.1%
- HepG2 cytotoxicity 12pt dose response: Maximum inhibition (%) [2]: 11.5%

Structure (SMILES): CC(NCc1cccs1)c1ccc(OCc2nccn2C)cc1 (stereo not shown) [UCSD-0817286]
- inhibition at 2 µM [3]: -3.54%

Structure (SMILES): CCc1nnsc1C(=O)NC1CCN(CCOc2ccc(Br)cc2)CC1 [UCSD-0818165]
- inhibition at 2 µM [3]: 23.1%

Structure (SMILES): Cc1cc(Br)cnc1NCCN1CCC(N(C)C)CC1 [UCSD-0818517]
- inhibition at 2 µM [3]: 4.34%

Structure (SMILES): CC(C)CC(C)N(C)C(=O)CCn1cccn1 (stereo not shown) [UCSD-0818578]
- inhibition at 2 µM [3]: -0.31%

Structure (SMILES): Cc1nc(C(=O)N2CC[C@@]3(C[C@@H](NS(C)(=O)=O)CCO3)C2)cs1 [UCSD-0821817]
- inhibition at 2 µM [3]: 25.6%

Structure (SMILES): c1ccc(OC2COC3(CCN(Cc4ccccn4)CC3)C2)cc1 (stereo not shown) [UCSD-0822599]
- inhibition at 2 µM [3]: 16.7%

Structure (SMILES): CN(Cc1ccncc1)C1COC2(CCN(Cc3nccn3C)CC2)C1 (stereo not shown) [UCSD-0822929]
- inhibition at 2 µM [3]: 2.08%

Structure (SMILES): CCc1ccccc1OC1CN(C(=O)c2ccnc(OC)c2)C1 [UCSD-0824378]
- IC50 [1, 5]: 16.6 µM
- Emax ([1]; HepG2-A16-CD81, 48 h): 80.5%
- IC50 [3]: > 50 µM
- inhibition at 2 µM [3]: 8.15%
- HepG2 cytotoxicity 12pt dose response: Maximum inhibition (%) [2]: 46.8%

Structure (SMILES): CN1CCN(CCc2ncnn2-c2ccc3c(c2)OCO3)CC1 [UCSD-0825202]
- inhibition at 2 µM [3]: 8.32%

Structure (SMILES): O=C(O)c1cccnc1N1CCN(Cc2ccc(F)cc2)C(CCO)C1 (stereo not shown) [UCSD-0826099]
- IC50 [1, 5]: > 50 µM
- Emax ([1]; HepG2-A16-CD81, 48 h): 46.3%
- IC50 [3]: > 50 µM
- inhibition at 2 µM [3]: 9.42%
- HepG2 cytotoxicity 12pt dose response: Maximum inhibition (%) [2]: 4.04%

Structure (SMILES): COc1ccc(CN2CCC=C(C(C)NC(C)=O)C2)cc1 (stereo not shown) [UCSD-0826536]
- inhibition at 2 µM [3]: 6.35%

Structure (SMILES): OC(c1ccccn1)C1CCN(Cc2cc3n(n2)CCNC3)CC1 (stereo not shown) [UCSD-0826546]
- inhibition at 2 µM [3]: -15.7%

Structure (SMILES): CN1CCC(N(C)CCC(=O)N2CCC(CCc3ccccc3)CC2)C1 (stereo not shown) [UCSD-0826822]
- inhibition at 2 µM [3]: 18.9%

Structure (SMILES): CCc1c(C(=O)N2CCN(C)[C@@H]3CS(=O)(=O)C[C@@H]32)[nH]c2ccccc12 [UCSD-0827053]
- inhibition at 2 µM [3]: -0.18%

Structure (SMILES): Cc1nc(NCc2noc(C3CCCO3)n2)c2sccc2n1 (stereo not shown) [UCSD-0827338]
- inhibition at 2 µM [3]: 37.4%

Structure (SMILES): Cc1ccc2cc(C3(O)CCN(C(=O)CSC(C)C)CC3)ccc2n1 [UCSD-0827397]
- IC50 [1, 5]: 16.9 µM
- IC50 [3]: > 50 µM
- inhibition at 2 µM [3]: 33.3%
- HepG2 cytotoxicity 12pt dose response: Maximum inhibition (%) [2]: 39.9%

Structure (SMILES): CC(C)(C)c1ncc(C(=O)NCCSc2ccccn2)c(O)n1 [UCSD-0828026]
- inhibition at 2 µM [3]: 27.1%

Structure (SMILES): O=C1N(CC2CC2)CCCC1(O)CN1CCc2[nH]ncc2C1 (stereo not shown) [UCSD-0829471]
- inhibition at 2 µM [3]: 2.23%

Structure (SMILES): Cc1ccc(NC(=O)CNC(C)CN2CCCCC2)c(F)c1 (stereo not shown) [UCSD-0831198]
- inhibition at 2 µM [3]: -1.94%

Structure (SMILES): N[C@@H]1CC[C@H](C(=O)NCCn2cc(Cl)cn2)C1 [UCSD-0831589]
- inhibition at 2 µM [3]: -3.85%

Structure (SMILES): NCC1CCN(C2CCN(c3ccc(-c4ccco4)cc3)CC2)C1 (stereo not shown) [UCSD-0833151]
- IC50 [1, 5]: 4.7 µM
- Emax ([1]; HepG2-A16-CD81, 48 h): 99.4%
- IC50 [3]: 14.1 µM
- inhibition at 2 µM [3]: 3.93%

Structure (SMILES): COc1ccc(C(=O)C2CCCN(c3cc(OC)ncn3)C2)c(C)c1 (stereo not shown) [UCSD-0833269]
- inhibition at 2 µM [3]: 27.4%

Structure (SMILES): COc1cc(Oc2ncccc2C(F)(F)F)ccc1CN1CCCC1 [UCSD-0833465]
- inhibition at 2 µM [3]: 1.7%

Structure (SMILES): Cc1cc(C)cc(CN2CCN(Cc3cccc(CCN)c3)CC2=O)c1 [UCSD-0834514]
- inhibition at 2 µM [3]: -1.16%

Structure (SMILES): Cc1csc2ncnc(N3CCC(Cn4cc(C(C)(C)O)nn4)CC3)c12 [UCSD-0835726]
- IC50 [1, 5]: 4.82 µM
- Emax ([1]; HepG2-A16-CD81, 48 h): 82.1%
- Emax ([4]; maximum inhibition, read-out: rLuc inhibition dose response: Maximum inhibition (%)): 5.67%
- IC50 ([4]; read-out: rLuc inhibition dose response: IC50): > 25 µM
- IC50 [3]: > 25 µM
- inhibition at 2 µM [3]: 4.96%

Structure (SMILES): CN(C)S(=O)(=O)c1csc(C(=O)N2CCSCC2)c1 [UCSD-0836661]
- inhibition at 2 µM [3]: 3.97%

Structure (SMILES): Nc1cc(N2CCC(c3cc(Cc4ccccc4)n[nH]3)CC2)ccn1 [UCSD-0836781]
- inhibition at 2 µM [3]: -2.51%

Structure (SMILES): CCS(=O)(=O)N(C)c1ccc(C(=O)N2CCCC(C)C2)cc1 (stereo not shown) [UCSD-0838984]
- inhibition at 2 µM [3]: 8.06%

Structure (SMILES): O=C1NCCN1C1CCN(Cc2nc(-c3ccccc3)no2)CC1 [UCSD-0839728]
- inhibition at 2 µM [3]: -6.19%

Structure (SMILES): Cc1nn(C)c(Cl)c1C1CCCN1C(=O)c1ccc(C(N)=O)cn1 (stereo not shown) [UCSD-0841146]
- inhibition at 2 µM [3]: 26.8%

Structure (SMILES): COc1cccc(-n2nnc(C(=O)N3CCN(C)CC3C)c2C)c1 (stereo not shown) [UCSD-0845525]
- inhibition at 2 µM [3]: 69.9%
